The numbers were not newly measured in patent publication US10332616B2, “Movable type method applied to protein-ligand binding” (University of Florida Research Foundation, Inc., priority 2013, dated 2019), which cites them from elsewhere.

One data set deals with T4 Lysozyme mutant. Conditions: PDB ID 1LI2.
For data set [1] the following is noted: experimental solvation free energy.

Where two headings read alike, the source gives them in different places.

Consider `Oc1ccccc1` [phenol], for which the “binding affinity (pKd)” value on T4 Lysozyme mutant is 4.04.

Turning to `O=[N+]([O-])c1c(Cl)c(Cl)c(Cl)c(Cl)c1Cl` [test2024], the “Exp. ΔGsolv” value in data set [1] (neutral compounds test set) is -5.22 kcal/mol.

Regarding `O=C1NC(=O)c2ccccc21` [test2025], the “Exp. ΔGsolv” value in data set [1] (test set with 372 neutral compounds) was -9.61 kcal/mol.

As to `CCCOC(=O)c1ccc(O)cc1` [test2026], the “Exp. ΔGsolv” value in data set [1] (neutral compounds test set) is -9.37 kcal/mol.

For `O=S1(=O)CCCC1` [test2027], the “Exp. ΔGsolv” value in data set [1] (neutral compounds test set) was -8.61 kcal/mol.

In the case of `COC(OC)(OC)C(F)(F)F` [test2029], in data set [1] (neutral compounds test set), the “Exp. ΔGsolv” value was -0.8 kcal/mol.

In the case of `CC(=O)Nc1ccc(O)cc1` [test3001], the “Exp. ΔGsolv” value in data set [1] (neutral compounds test set) was -14.83 kcal/mol.

As for `CC(=O)Nc1cccc(O)c1` [test3002], in data set [1] (neutral compounds test set), the “Exp. ΔGsolv” value was -13.93 kcal/mol.

As for `O=C(O)CCC(=O)c1ccc(-c2ccccc2)cc1` [test3003], the “Exp. ΔGsolv” value in data set [1] (neutral compounds test set) was -12.75 kcal/mol.

For `CC(=O)Nc1ccccc1O` [test3004], the “Exp. ΔGsolv” value in data set [1] (neutral compounds test set) is -11.61 kcal/mol.

As for `CCOc1ccc(NC(C)=O)cc1` [test3005], the “Exp. ΔGsolv” value in data set [1] (neutral compounds test set) was -10.91 kcal/mol.

`COc1ccccc1C(=O)O` [test3007]: the “Exp. ΔGsolv” value in data set [1] (neutral compounds test set) was -10.32 kcal/mol.

Consider `COc1ccc(C(=O)O)cc1` [test3014], for which, in data set [1] (neutral compounds test set), the “Exp. ΔGsolv” value was -9.15 kcal/mol.

Consider `COc1cccc(C(=O)O)c1` [test3015], for which, in data set [1] (neutral compounds test set), the “Exp. ΔGsolv” value was -8.93 kcal/mol.

Regarding `Cc1c(Cl)cccc1Nc1ccccc1C(=O)O` [test3019], in data set [1] (neutral compounds test set), the “Exp. ΔGsolv” value was -6.71 kcal/mol.

On to `O=C(O)Cc1ccccc1Nc1c(Cl)cccc1Cl` [test3020], for which the “Exp. ΔGsolv” value in data set [1] (neutral compounds test set) is -6.3 kcal/mol.

On to `O=C(O)c1ccccc1Nc1cccc(C(F)(F)F)c1` [test3021], for which the “Exp. ΔGsolv” value in data set [1] (neutral compounds test set) is -5.68 kcal/mol.
